Data reported in patent US11478451B1, “Macrocyclic chlorine substituted indole derivatives” (Bayer Aktiengesellschaft, priority 2017, dated 2022).
Structures can show the parent of a compound that is named as a salt. Where two headings read alike, the source gives them in different places.

What was measured:
[1] = system: SUDHL5 cells; assay: Antiproliferation assay (CellTiter-Glo, 72 h), SUDHL5; type: cell-based; settings: IC50, median, SUDHL5, 72 h, read-out: Antiproli SUDHL5 [M] (median)
How it was run: (§1)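 Cells were exposed to compounds for 72 h at 37 °C in a humidified incubator, with rim wells excluded. Viability was read by CellTiter-Glo luminescence after a 10 min incubation. A parallel day 0 plate, read the same way, gave the time-zero baseline.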

[2] = system: HMC-1-8 cells; assay: Antiproliferation assay (CellTiter-Glo, 72 h), HMC-1-8; type: cell-based; settings: IC50, median, HMC-1-8, 72 h, read-out: Antiproli HMC-1-8 [M] median
Protocol: Assessment of the Anti-Proliferative Effect of Compounds in Different Cell Lines
The impact of compounds on the proliferation of different cell lines was assessed using the CellTiter-Glo® Luminescent Cell Viability reagent from Promega (G7573).
In parallel, cells were plated in a reference (day 0) plate for time zero determination.
Rim wells were excluded. The cells were incubated for 72 h hours in a humidified incubator at 37° C. The day 0 plate was measured by adding 30 μL/well of CTG solution (CellTiter-Glo® Luminescent Cell Viability reagent, Promega G7573) to time zero wells in the reference plate followed by a 10 minutes incubation and luminescence reading at 0.1 ms. using the PHERAstar FS microplate reader (BMG Labtech).
After 72 h incubation, the treated plates were measured in the same way as the day 0 plate mentioned above.

[3] = system: SUDHL5 cells; assay: Induction of caspase-3/7 activity (Caspase-Glo 3/7), SUDHL5; type: cell-based; settings: EC50, median, SUDHL5, 3 h treatment
How it was run: (§2)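 DLBCL lines were exposed to test compounds for 3 h at 37 °C in a humidified incubator, then caspase-3/7 activity was measured with Caspase-Glo 3/7 reagent. Medium-only background was subtracted from all readings.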

[4] = system: SUDHL10 cells; assay: Induction of cytotoxicity (CellTiter-Glo, 5 h), SUDHL10; settings: SUDHL10, 5 h
[5] = system: SUDHL10 cells; assay: Induction of caspase-3/7 activity (Caspase-Glo 3/7), SUDHL10; type: cell-based; settings: EC50, median, SUDHL10, 3 h treatment
How it was run: as §2

[6] = system: SUDHL5 cells; assay: Induction of cytotoxicity (CellTiter-Glo, 5 h), SUDHL5; settings: SUDHL5, 5 h
[7] = system: AMO-1 cells; assay: Antiproliferation assay (CellTiter-Glo, 72 h), AMO-1; type: cell-based; settings: IC50, median, AMO-1, 72 h, read-out: Antiproli AMO-1 [M] median
How it was run: as §1

[8] = Homo sapiens, SU-DHL10, 5 h, read-out: Cytotox SUDHL10 [M] (median), IC50, median
[9] = read-out: Cytotox SUDHL5 [M] (median), IC50, median
[10] = read-out: Cytotox SUDHL10 [M] (median), IC50, median
[11] = Homo sapiens, SU-DHL-5, 5 h, read-out: Cytotox SUDHL5 [M] (median), IC50, median

Compound | IC50 [1] | EC50 [3] | IC50 ([7]; Homo sapiens, AMO1, 72 h) | IC50 ([1]; Homo sapiens, SU-DHL-5, 72 h) | IC50 ([2]; 72 h) | IC50 [7] | EC50 [5] | IC50 [6, 9] | other results
CCc1c2c(nn1C)CCCN(CC(F)F)CCn1c(C(=O)O)c(CCCOc3cccc4cc(F)ccc34)c3ccc(Cl)c-2c31 [Example 120, (−)-4-chloro-12-(2,2-difluoroethyl)-3-ethyl-7-{3-[(6-fluoronaphthalen-1-yl)oxy]propyl}-2-methyl-10,11,12,13,14,15-hexahydro-2H-pyrazolo[3′,4′:8,9][1,4]diazacycloundecino[10,11,1-hi]indole-8-carboxylic acid N-ethylethanamine salt] | 7e-06 M | 10000 nM | – | – | – | – | – | – | IC50 [2]: 7.1e-06 M
CCc1c2c(nn1C)COCC(F)(F)CCn1c(C(=O)O)c(CCCOc3cccc4cc(F)ccc34)c3ccc(Cl)c-2c31 (single isomer, unassigned) [Example 86, (+)-4-chloro-3-ethyl-12,12-difluoro-7-{3-[(6-fluoronaphthalen-1-yl)oxy]propyl}-2-methyl-2,10,11,12,13,15-hexahydropyrazolo[4′,3′:9,10][1,6]oxazacycloundecino[8,7,6-hi]indole-8-carboxylic acid] | – | – | – | – | – | – | – | – | IC50 ([4]; read-out: Cytotox SUDHL10 [M] (median), IC50, median, listed as 086): 9.7e-07 M; EC50 ([5]; listed as 086): 620 nM; IC50 ([1]; listed as 086): 9.3e-07 M; IC50 ([6]; read-out: Cytotox SUDHL5 [M] (median), IC50, median, listed as 086): 6.3e-07 M; IC50 ([2]; listed as 086): 6.4e-06 M; EC50 ([3]; listed as 086): 470 nM
CCc1c2c(nn1C)CN(CCC1CCOCC1)CCCCn1c(C(=O)O)c(CCCOc3cccc4cc(F)ccc34)c3ccc(Cl)c-2c31 (racemic) [Example 135, (rac)-4-chloro-3-ethyl-7-{3-[(6-fluoronaphthalen-1-yl)oxy]propyl}-2-methyl-14-[2-(oxan-4-yl)ethyl]-10,11,12,13,14,15-hexahydro-2H-pyrazolo[3′,4′:8,9][1,6]diazacycloundecino[10,11,1-hi]indole-8-carboxylic acid] | – | – | 1.2e-07 M | 1.2e-07 M | 8.7e-07 M | – | – | – | IC50 [4, 8]: 1.5e-07 M; EC50 ([5]; Homo sapiens, SU-DHL10, 3 h): 140 nM
CCc1c2c(nn1C)CN(C)CCCn1c(C(=O)O)c(CCCOc3cccc4cc(F)ccc34)c3ccc(Cl)c-2c31 (racemic) [Example 112, (rac)-12-chloro-11-ethyl-1-{3-[(6-fluoronaphthalen-1-yl)oxy]propyl}-7,10-dimethyl-4,5,6,7,8,10-hexahydropyrazolo[3′,4′:7,8][1,5]diazecino[9,10,1-hi]indole-2-carboxylic acid] | – | 600 nM | – | 1.5e-06 M | 7.1e-06 M | 9.1e-07 M | 860 nM | 6.1e-07 M | –
Cc1c2c(nn1C)COCCC(F)(F)Cn1c(C(=O)O)c(CCCOc3cccc4ccccc34)c3ccc(Cl)c-2c31 (racemic) [Example 68, (rac)-4-chloro-11,11-difluoro-2,3-dimethyl-7-[3-(1-naphthyloxy)propyl]-2,10,11,12,13,15-hexahydropyrazolo[4′,3′:9,10][1,6]oxazacycloundecino[8,7,6-hi]indole-8-carboxylic acid] | – | – | 2.6e-06 M | 2.6e-06 M | 7.9e-06 M | – | – | – | IC50 [4, 8]: 3.3e-06 M; EC50 ([5]; Homo sapiens, SU-DHL10, 3 h): 3100 nM; EC50 ([3]; Homo sapiens, SU-DHL-5, 3 h): 1400 nM
CCc1c2c(nn1C)COCC1CC1Cn1c(C(=O)O)c(CCCOc3cccc4cc(F)ccc34)c3ccc(Cl)c-2c31 (single isomer, unassigned; (+)) [Example 104, (+)-3-chloro-4-ethyl-14-{3-[(6-fluoronaphthalen-1-yl)oxy]propyl}-5-methyl-5,7,9a,10,10a,11-hexahydro-9H-cyclopropa[3,4]pyrazolo[4′,3′:9,10][1,6]oxazacycloundecino[8,7,6-hi]indole-13-carboxylic acid N-ethylethanamine salt] | – | 810 nM | – | 1e-06 M | – | 2.4e-06 M | 1500 nM | 9.7e-07 M | IC50 [2]: 8.5e-06 M
CCc1c2c(nn1C)COCC1CC1Cn1c(C(=O)O)c(CCCOc3cccc4cc(F)ccc34)c3ccc(Cl)c-2c31 (racemic) [Example 103, (rac)-3-chloro-4-ethyl-14-{3-[(6-fluoronaphthalen-1-yl)oxy]propyl}-5-methyl-5,7,9a,10,10a,11-hexahydro-9H-cyclopropa[3,4]pyrazolo[4′,3′:9,10][1,6]oxazacycloundecino[8,7,6-hi]indole-13-carboxylic acid] | 5.5e-07 M | – | – | – | 7.1e-06 M | 8.2e-07 M | 500 nM | 5.7e-07 M | IC50 [4, 10]: 7e-07 M
CCc1c2c(nn1C)CN(CC(F)F)CCCCn1c(C(=O)O)c(CCCOc3cccc4cc(F)ccc34)c3ccc(Cl)c-2c31 (racemic) [Example 62, (rac)-4-chloro-14-(2,2-difluoroethyl)-3-ethyl-7-{3-[(6-fluoronaphthalen-1-yl)oxy]propyl}-2-methyl-10,11,12,13,14,15-hexahydro-2H-pyrazolo[3′,4′:8,9][1,6]diazacycloundecino[10,11,1-hi]indole-8-carboxylic acid] | 3.4e-07 M | – | – | – | 2.2e-06 M | 2.2e-07 M | 380 nM | 3.1e-07 M | IC50 [4, 10]: 3.6e-07 M
Cc1c2c(nn1C)COCC1CCC1Cn1c(C(=O)O)c(CCCOc3cccc4ccccc34)c3ccc(Cl)c-2c31 (single isomer, unassigned; stereoisomer 2) [Example 64] | – | 330 nM | 1.6e-06 M | 5e-07 M | 5.6e-06 M | – | – | – | IC50 [6, 11]: 5.4e-07 M
CCc1c2c(nn1C)COCC1(CCn3c(C(=O)O)c(CCCOc4cccc5cc(F)ccc45)c4ccc(Cl)c-2c43)CC1 [Example 110, (−)-4′-chloro-3′-ethyl-7′-{3-[(6-fluoronaphthalen-1-yl)oxy]propyl}-2′-methyl-2′,10′,11′,15′-tetrahydro-13′H-spiro[cyclopropane-1,12′-pyrazolo[4′,3′:9,10][1,6]oxazacycloundecino[8,7,6-hi]indole]-8′-carboxylic acid-N-ethylethanamine salt] | – | 120 nM | – | 2.1e-07 M | 1.4e-06 M | 3.5e-07 M | 160 nM | – | IC50 [4, 10]: 2.8e-07 M
CCc1c2c(nn1C)CN(CC(F)(F)F)CCCCn1c(C(=O)O)c(CCCOc3cccc4cc(F)ccc34)c3ccc(Cl)c-2c31 (racemic) [Example 61, (rac) 4-chloro-3-ethyl-7-{3-[(6-fluoronaphthalen-1-yl)oxy]propyl}-2-methyl-14-(2,2,2-trifluo-roethyl)-10,11,12,13,14,15-hexahydro-2H-pyrazolo[3′,4′:8,9][1,6]diazacycloundecino[10,11,1-hi]indole-8-carboxylic acid] | – | – | 6.8e-07 M | 2.5e-07 M | 1.7e-06 M | – | – | – | IC50 [4, 8]: 5.3e-07 M; EC50 ([5]; Homo sapiens, SU-DHL10, 3 h): 440 nM; IC50 [6, 11]: 3.4e-07 M
Cc1c2c(nn1C)CN(CC(F)(F)F)CCCCn1c(C(=O)O)c(CCCOc3cccc4cc(F)ccc34)c3ccc(Cl)c-2c31 (single isomer, unassigned; enantiomer 2) [Example 60, 4-chloro-7-{3-[(6-fluoronaphthalen-1-yl)oxy]propyl}-2,3-dimethyl-14-(2,2,2-trifluoroethyl)-10,11,12,13,14,15-hexahydro-2H-pyrazolo[3′,4′:8,9][1,6]diazacycloundecino[10,11,1-hi]indole-8-carboxylic acid—Enantiomer 2] | 3.9e-06 M | 7600 nM | – | – | 8.7e-06 M | – | – | 6.9e-06 M | –
